Measured values: article PMC5951806, “Rapid labelling and covalent inhibition of intracellular native proteins using ligand-directed N-acyl-N-alkyl sulfonamide” (Nature Communications, 2018)

Target: T1, Carnitine O-palmitoyltransferase 1, liver isoform (CPT1A) (Homo sapiens, UniProt P50416)
T1 sequence (P50416 1-773): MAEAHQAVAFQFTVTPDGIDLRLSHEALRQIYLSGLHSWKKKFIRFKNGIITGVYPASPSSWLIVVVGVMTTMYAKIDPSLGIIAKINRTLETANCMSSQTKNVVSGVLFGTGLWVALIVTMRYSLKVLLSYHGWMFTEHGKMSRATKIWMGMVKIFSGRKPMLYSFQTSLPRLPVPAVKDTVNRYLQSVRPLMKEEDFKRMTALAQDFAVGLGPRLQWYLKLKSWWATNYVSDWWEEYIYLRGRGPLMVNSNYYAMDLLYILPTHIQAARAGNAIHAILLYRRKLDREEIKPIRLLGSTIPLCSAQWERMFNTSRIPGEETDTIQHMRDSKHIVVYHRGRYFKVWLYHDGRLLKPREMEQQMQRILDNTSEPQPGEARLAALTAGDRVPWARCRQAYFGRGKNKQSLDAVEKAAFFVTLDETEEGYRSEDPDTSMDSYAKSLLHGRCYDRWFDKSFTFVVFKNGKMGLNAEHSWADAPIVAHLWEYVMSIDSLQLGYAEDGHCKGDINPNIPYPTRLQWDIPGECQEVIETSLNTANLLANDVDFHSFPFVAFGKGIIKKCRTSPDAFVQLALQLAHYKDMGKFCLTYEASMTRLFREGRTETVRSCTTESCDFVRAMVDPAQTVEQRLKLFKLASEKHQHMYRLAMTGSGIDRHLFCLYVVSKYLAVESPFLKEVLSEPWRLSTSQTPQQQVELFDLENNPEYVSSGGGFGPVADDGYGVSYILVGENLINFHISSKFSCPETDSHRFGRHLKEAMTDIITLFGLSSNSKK
Experiment: TMT LC-MSMS of 11-labelled proteins
Type: cell-based

CC(=O)Oc1ccc2c(c1)Oc1cc(OC(C)=O)ccc1C21OC(=O)c2cc(C(=O)NCCOCCOCCNC(=O)CCCC(=O)N(CC#N)S(=O)(=O)c3ccc(C(=O)NCCCn4c(Sc5cc6c(cc5I)OCO6)nc5c(N)ncnc54)cc3)ccc21 [compound 11]
Abundance Ratio: (11) / (11 with PU-H71) (Exp3, CPT1A): 0.719
Abundance Ratio: (11) / (DMSO) (Exp3, CPT1A): 1.338
Abundances (Grouped): 11 (Exp3, CPT1A): 20.2
Abundances (Grouped): 11 with PU-H71 (Exp3, CPT1A, with PU-H71): 28.1
Abundance Ratio: (11) / (DMSO) (sheet Exp1, SKBR3 cells, 11 0.5 µM 3 h vs DMSO): 2.506
Abundance Ratio: (11) / (11 with PU-H71) (sheet Exp1, SKBR3 cells, 11 0.5 µM 3 h vs with PU-H71 10 µM): 0.783
Abundance Ratio: (11) / (DMSO) (sheet Merged, SKBR3 cells, 11 0.5 µM 3 h vs DMSO): 1.461
Abundance Ratio: (11) / (11 with PU-H71) (sheet Merged, SKBR3 cells, 11 0.5 µM 3 h vs with PU-H71 10 µM): 0.79
